# Test results from patent US20220323454A1, “PHENOTHIAZINES AND THEIR DERIVATIVES FOR USE AS A MEDICAMENT” (Guangzhou Virotech Pharmaceutical Co., Ltd., priority 2019, published 2022).
# How the values were obtained:
# [1] = tested on: Jurkat-PD-1-NFAT-LUC cells; assay: IL-2 secretion by Jurkat-PD-1-NFAT-LUC cells co-cultured with Raji-PD-L1 cells (ELISA); format: cell-based, human; details: 6 hours, FIG. 1D
# Protocol: (1) Jurkat cells were used to construct a stable cell line expressing PD-1. The pCAGin-PD-1 plasmid was electroporated into Jurkat cells, which were then screened with 900 μg/mL G418 antibiotic and flow-sorted for single clones. Jurkat-PD-1 cells were then electroporated into a DNA fragment that controls the luciferase gene through the NFAT-binding site (referred to as NFAT-LUC). A single clone was then flow-sorted and named clone 5. Using this cell, the expression level of IL-2 can be measured by the activity of luciferase. Raji cells stably expressing PD-L1 were constructed, and the pCDNA-PD-L1 plasmid was electroporated into the Raji cells, followed by screening with 2 μg/mL puromycin, and then flow-sorted single clones and named clone 1.
# (3) A 96-well plate was coated with 10 μg/mL CD3 antibody/10 μg/mL CD28 antibody overnight at 4° C. and excess antibody was washed off with PBS. Raji cells or Raji-PD-L1 cells were co-cultured with Jurkat-PD-1-NFAT-LUC cells at a ratio of 1:1, or to a mixture of Raji-PD-L1 cells and Jurkat-PD-1-NFAT-LUC cells at a ratio of 1:1 was added 1 μM MTC or 10 μg/mL PD1 antibody for co-culture; after 6 hours of co-culture, the secretion of IL-2 in the supernatant was measured by ELISA.
# EL4-OVA-mPDL1 cells = assay: EL4-OVA-mPDL1 subcutaneous transplanted tumor in Rag1−/− mice given CTL cells; format: in vivo, mouse
# Protocol: (1) Lymphoma cells overexpressing chicken ovalbumin OVA and mouse PD-L1, namely EL4-OVA-mPDL1 cells, were resuspended in BD Matrigel, in which, for one side of one mouse, 2×10^6 cells were resuspended in 100 μl BD Matrigel.
# (2) The mixture of cells and Matrigel was inoculated into the left and right flanks of Rag1−/− mice subcutaneously, each at a dosage of 100 μl.
# (3) When the tumor was fixed about 5 days after inoculation, activated OT-1 T cells (i.e., 2×10^6 CTL cells/mouse) were injected through the tail vein, and the mice were divided into 3 groups, namely the CTL cell group, the CTL cell +10 mg/kg/2 days PD-1 antibody group, and the CTL cell +40 mg/kg/day MTC group.
# (4) The length and width of the transplanted tumor of each group of mice were measured from the day of tail vein injection of CTL cells, and every other day, and the tumor volume was calculated as length×width^2/2 (FIG. 5A).
# PD-1 recruitment of SHP2 = target: T1, PD-1 recruitment of SHP2 (Homo sapiens, UniProt Q06124+Q15116); assay: Split-luciferase PD-1-Cluc / Nluc-SHP2 interaction in 293T cells; format: cell-based; details: 293T stable cell line, different concentrations of MTC, 6 hours; FIG. 7A
# T1 construct: expressed in transfected cells
# From the text: This example preliminarily explored the mechanism by which MTC inhibits PD-1 signaling, and assessed the ability of MTC to affect PD-1 recruitment of SHP2. The binding of PD-1 to ligands can recruit SHP2 protein to the surrounding T cell receptors, thereby inhibiting the activation of T cell receptor proximal kinases, reducing Lck-mediated phosphorylation of ZAP-70 protein and the initiation of downstream signaling pathways. Luciferase can be split into two fragments, N-terminal and C-terminal. When the two fragments are fused with other proteins, the activity of luciferase can be detected if the N-terminal and C-terminal luciferase fragments are close due to the interaction of their fusion proteins. Therefore, the strength of the interaction of the fused proteins can indirectly detected by measuring the activity of luciferase.
# (1) Fusion genes PD-1-Cluc and Nluc-SHP2 were transfected into 293T cells with liposomes to construct a stable cell line. The cells were added with different concentrations of MTC and cultured for 6 hours to observe the effect of MTC on the reading of luciferase.
# B16-WT cells = assay: Killing of B16-WT melanoma cells, with or without CTL cells; format: cell-based, mouse; details: FIG. 4E
# Protocol: (4) The B16-OVA group received no treatment, and the medium was replaced with water in the Water group. The other groups were treated with 10 μg/mL IFNγ. After 24 hours, except for the B16-OVA group, each group was co-cultured with CTL cells at a ratio of 1:5 for 4 hours, and treated with MTC […], LMT (1 μM) or anti-PD1 (PD-1 antibody, 10 μg/mL, Nivolumab, BMS). The death of B16-OVA in each group was observed by microscope, and then the killing ability of CTL cells to target cells was assessed. […] The IFN-γ+MTC group and the IFN-γ+LMT group were treated with 10 μg/mL IFN-γ for 24 hours. The cells were then mixed with CTL cells at a ratio of 1:5, co-cultured for 4 hours and treated with MTC (1 μM) or LMT (1 μM). The MTC and LMT groups were treated with MTC (10 μM) or LMT (10 μM) only. The killing ability against target cells was observed.
# [2] = tested on: EGFR-L858R mutant orthotopic tumors; assay: EGFR-L858R transgenic mouse orthotopic lung cancer model (CT); format: in vivo; details: FIG. 6B
# From the text: The advantages of xenograft models are that the antigenic epitopes recognized by T cells are very clear, and the system is pure for elucidation. The disadvantage is that this model cannot simulate the complex carcinogenesis, tumorigenesis, and interactions of tumor and stromal cells of the primary cancer. Therefore, murine xenograft models are less predictive of drug effects in human patients. Therefore, in this example, the effect of the MTC of the present invention in treating tumors was further investigated by using a transgenic lung cancer mouse model. […] One to two months later, lung cancer in mice could be detected and recorded by computed tomography (CT). […]
# (2) The size and severity of the tumors was recorded by computed tomography (CT).
# (3) The tumor-bearing mice were randomly divided into groups and given placebo (HKI solution) and MTC (40 mg/kg/day in HKI solution). After 2 weeks of treatment, tumor sizes were recorded by CT again.
# Mice were intraperitoneally injected with CD8 antibody […] one week in advance to deplete CD8+ cells in the tumor-bearing mice. The mice were then co-treated with MTC and CD8 antibody for 2 weeks, and the tumor size was recorded by CT.
# T1 sequence (Q15116 25-288): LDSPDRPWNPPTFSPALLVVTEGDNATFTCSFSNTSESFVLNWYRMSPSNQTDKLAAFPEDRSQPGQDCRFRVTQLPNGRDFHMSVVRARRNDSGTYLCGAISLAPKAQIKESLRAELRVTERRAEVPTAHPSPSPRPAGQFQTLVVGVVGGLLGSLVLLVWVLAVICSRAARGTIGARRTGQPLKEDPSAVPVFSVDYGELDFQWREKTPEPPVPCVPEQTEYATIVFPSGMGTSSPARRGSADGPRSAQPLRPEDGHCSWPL
# T1 sequence (Q06124 whole entry): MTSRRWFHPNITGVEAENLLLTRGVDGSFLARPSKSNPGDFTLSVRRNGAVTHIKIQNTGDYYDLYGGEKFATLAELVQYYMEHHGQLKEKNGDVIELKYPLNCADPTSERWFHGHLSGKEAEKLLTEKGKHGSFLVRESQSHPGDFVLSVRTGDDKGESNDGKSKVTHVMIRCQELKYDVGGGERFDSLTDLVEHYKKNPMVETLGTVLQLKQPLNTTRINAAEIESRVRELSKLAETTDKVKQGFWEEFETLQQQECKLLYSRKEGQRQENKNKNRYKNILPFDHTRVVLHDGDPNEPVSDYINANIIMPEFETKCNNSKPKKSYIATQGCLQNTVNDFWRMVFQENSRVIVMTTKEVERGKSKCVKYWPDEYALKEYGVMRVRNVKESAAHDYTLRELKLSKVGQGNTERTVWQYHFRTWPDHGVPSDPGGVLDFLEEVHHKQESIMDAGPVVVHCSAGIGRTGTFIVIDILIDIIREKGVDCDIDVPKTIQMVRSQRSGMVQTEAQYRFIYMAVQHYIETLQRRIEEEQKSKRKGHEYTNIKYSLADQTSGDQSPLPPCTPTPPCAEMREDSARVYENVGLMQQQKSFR
structure (smiles),measurement,setting,value
"CN(C)c1ccc2nc3ccc(N(C)C)cc3[s+]c2c1 [MTC, 3,7-bis(dimethylamino)-phenothiazine-5-ium chloride]","function of Jurkat cells inhibited by PD-1, compared with the PD-1 antibody group",[1]; 1 μM MTC vs 10 μg/mL PD1 antibody,significantly improved
same,secretion of IL-2 in the supernatant,"[1]; Raji-PD-L1 : Jurkat-PD-1-NFAT-LUC 1:1, CD3/CD28 antibody coated plate, 1 μM MTC or 10 μg/mL PD1 antibody",sharply enhanced
same,tumor growth (tumor volume and tumor weight),"EL4-OVA-mPDL1 cells; CTL cells by tail vein, MTC 40 mg/kg/day intragastric, PD-1 antibody 10 mg/kg/2 days intraperitoneal, vs CTL cell-only group, FIGS. 5B, C, D",strongly inhibited tumor growth
same,therapeutic effect of CTL+MTC compared with CTL+PD-1 antibody treatment group,EL4-OVA-mPDL1 cells; MTC 40 mg/kg/day vs PD-1 antibody 10 mg/kg/2 days,better therapeutic effect
same,readings of luciferase (PD-1-Cluc / Nluc-SHP2 interaction),PD-1 recruitment of SHP2,reduce the readings of luciferase
same,"killing effect on B16-WT cells, combination with CTL cells","B16-WT cells; IFN-γ 10 μg/mL 24 hours, B16-WT : CTL 1:5, 4 hours, MTC (1 μM) or LMT (1 μM)",no killing effect
same,"killing effect on B16-WT cells, compound only",B16-WT cells; MTC (10 μM) or LMT (10 μM) only,no killing effect
same,tumor growth in the case of CD8+ T cell depletion,"[2]; CD8 antibody one week in advance, then MTC and CD8 antibody for 2 weeks",not inhibited
same,tumors by CT imaging,"[2]; MTC 40 mg/kg/day in HKI solution, 14 days",basically cleared
